Assay results published in patent publication US20110117125A1, “COMPOSITIONS AND METHODS FOR THE DELIVERY OF NUCLEIC ACIDS” (TEKMIRA PHARMACEUTICALS CORPORATION, priority 2008, published 2011).

How the values were obtained:
[1] = ODN 14 compared with ODN 1; cited from earlier work
Factor VII = Factor VII knockdown in mice by FVII siRNA lipid particles; assay type: in vivo; conditions: 40/10/40/10 aminolipid/DSPC/Chol/PEG-S-DMG, IV, C57BL/6 mice, 24 hours post-injection
Description: Factor VII (FVII), a prominent protein in the coagulation cascade, is synthesized in the liver (hepatocytes) and secreted into the plasma. FVII levels in plasma can be determined by a simple, plate-based colorimetric assay. As such, FVII represents a convenient model for determining siRNA-mediated downregulation of hepatocyte-derived proteins, as well as monitoring plasma concentrations and tissue distribution of the nucleic acid lipid particles and siRNA.
FVII activity was evaluated in FVII siRNA-treated animals at 24 hours after intravenous (bolus) injection in C57BL/6 mice. FVII was measured using a commercially available kit (Biophen FVII Kit™; Aniara Corp., Mason, Ohio), following the manufacturer's instructions at a microplate scale. FVII reduction was determined against untreated control mice, and the results were expressed as % Residual FVII. […]
The MTD for these studies was set as the lowest dose causing >7% decrease in body weight and a>200-fold increase in alanine aminotransferase (ALT), a clinical chemistry marker with good specificity for liver damage in rodents. The ED50 was determined from FVII dose-activity curves.
The ability of various lipid formulations to knockdown Factor VII expression was determined in a liver model using Factor VII siRNA, in order to evaluate the impact of aminolipid linker chemistry. […]

Row | Compound | immunostimulatory / biological activity [1] | improvement of dose (mg/kg) to achieve 50% Factor VII reduction versus ester linkage (DLinDAP lipid) (Factor VII) | improvement of dose (mg/kg) to achieve 50% Factor VII reduction versus ether linkage (DLinDMA lipid) (Factor VII)
1 | 5′-AACC GTT GAG GGG CAT-3′ (DNA AACCGTTGAGGGGCAT; DNA, backbone and methylation of C not given here) [ODN 14] | ODN 14 is a 15-mer oligonucleotide and ODN 1 is the same oligonucleotide having a thymidine added onto the 5′ end making ODN 1 into a 16-mer. No difference in biological activity between ODN 14 and ODN 1 has been detected and both exhibit similar immunostimulatory activity (Mui et al., 2001) |  | 
2 | CCCCC/C=C\C/C=C\CCCCCCCCC1(CCCCCCCC/C=C\C/C=C\CCCCC)OCC(CN(C)C)O1 (stereo not shown) [DLin-K-DMA, 2,2-Dilinoleyl-4-dimethylaminomethyl-[1,3]-dioxolane] |  | approximately 100 -fold | approximately 10 -fold
3 | 5′-TAACGTTGAGGGGCAT-3 (DNA, backbone and methylation of C not given here) [ODN 1] | ODN 14 is a 15-mer oligonucleotide and ODN 1 is the same oligonucleotide having a thymidine added onto the 5′ end making ODN 1 into a 16-mer. No difference in biological activity between ODN 14 and ODN 1 has been detected and both exhibit similar immunostimulatory activity (Mui et al., 2001) |  | 
